{"source": "patent US12344614B2", "about": "“Benzodiazepine derivatives as GABA a GAMMA1 PAM” (Hoffmann-La Roche Inc., priority 2021, dated 2025)", "key": {"[1]": {"molecular_target": "human GABAA α1β2γ1 receptor (Homo sapiens (Human), UniProt P14867+Q8N1C3)", "experiment": "Radioligand binding assay, competition for [3H]RO7239181, membranes from HEK293F cells", "experimental": "(§1) The affinity of compounds at GABAA γ1 subunit-containing receptors was measured by competition for [^3H]RO7239181 (67.3 Ci/mmol; Roche) binding to membranes from HEK293F cells (ThermoFisher R79007) expressing human (transiently transfected) receptors of composition α5β2γ1, α2β2γ1, α1β2γ1.\n(§2) Harvested pellets from HEK293F cells expressing the different GABAA receptor subtypes were resuspended in Mannitol Buffer pH 7.2-7.4 (Mannitol 0.29M, Triethylamine 10 mM, Acetic acid 10 mM, EDTA 1 mM plus protease inhibitors (20 tablets Complete, Roche Diagnostics Cat. No. 05 056 489 001 per liter)), washed two times and then resuspended at 1:10 to 1:15 dilution in the same buffer. Cell disruption was performed by stirring the suspension in a Parr vessel #4637 at 435 psi for 15 minutes, and then the suspensions were centrifuged at 1000×g for 15 minutes at 4° C. (Beckman Avanti J-HC; rotor JS-4.2). The supernatant (S1) was transferred in a 21 Schott flask and the pellet (P1) was resuspended with Mannitol Buffer up to 175 ml. The resuspended pellet was transferred into a 250 ml Corning centrifugal beaker and centrifuged at 1500×g for 10 minutes at 4° C. (Beckman Avanti J-HC; rotor JS-4.2). The supernatant (S1) was then transferred in the 21 Schott flask and the pellet was discarded. The supernatants (S1) were centrifuged in 500 ml Beckman polypropylene centrifugal beaker at 15′000×g for 30 minutes at 4° C. (Beckman Avanti J-20 XP; rotor JLA-10.500). The pellet (P2) was resuspended with Mannitol Buffer 1:1 and frozen at −80° C. The supernatant (S2) was centrifuged in 100 ml Beckman polypropylene centrifugal tubes at 48000×g for 50 minutes at 4° C. (Beckman Avanti J-20 XP; rotor JA-18). The supernatant (S3) was discarded and the pellet (P3) was resuspended with 1:1 Mannitol Buffer. The P2 and P3 protein concentration was determined with the BIORAD Standard assay method with bovine serum albumin as standard and measured on the NANO-Drop 1000. The membrane suspension was aliquots (500 μl per tube) and stored at −80° C. until required.\n(§3) Membrane homogenates were resuspended and polytronised (Polytron PT1200E Kinematica AG) in Potassium Phosphate 10 mM, KCl 100 mM binding buffer at pH 7.4 to a final assay concentration determined with a previous experiment.\n(§4) Assays were incubated to equilibrium for 1 hour at 4° C. and then, membranes were filtered onto unifilter (96-well white microplate with bonded GF/C filters preincubated 20-50 minutes in 0.3% Polyethylenimine) with a Filtermate 196 harvester (Packard BioScience) and washed 4 times with cold Potassium Phosphate 10 mM pH 7.4, KCl 100 mM binding buffer. After anhydrousing, filter-retained radioactivity was detected by liquid scintillation counting. Ki values were calculated using Excel-Fit (Microsoft) and are the means of two determinations."}, "[2]": {"molecular_target": "human GABAA α2β2γ1 receptor (Homo sapiens (Human), UniProt P47869+Q8N1C3)", "experiment": "Radioligand binding assay, competition for [3H]RO7239181, membranes from HEK293F cells", "experimental": "as §1, §2, §3, §4"}, "[3]": {"molecular_target": "human GABAA α1β3γ2 receptor (Homo sapiens (Human), UniProt P14867+P18507)", "experiment": "Radioligand binding assay, competition for [3H]Flumazenil, HEK293F cells", "settings": "for γ2/γ1 Selectivity Ratio: Ki α1β3γ2 (nM)/Ki α2β2γ1 (nM); for LogSel: Log[Ki α1β3γ2 (nM)/Ki α2β2γ1 (nM)]", "experimental": "The affinity of compounds at GABAA γ2 subunit-containing receptors was measured by competition for [^3H]Flumazenil (81.1 Ci/mmol; Roche) binding to HEK293F cells expressing human (transiently transfected) receptors of composition α1β3γ2.\nHarvested pellets from HEK293F cells expressing the different GABAA γ2 receptor subtypes were resuspended in Mannitol Buffer pH 7.2-7.4 and processed as described above for the cells expressing the GABAA γ1 subunit-containing receptors.\nAssays were incubated to equilibrium for 1 hour at 4° C. and harvested onto GF/C uni-filters (Packard) by filtration using a Packard harvester and washing with ice-cold wash buffer (50 mM Tris; pH 7.5). After anhydrousing, filter-retained radioactivity was detected by liquid scintillation counting. Ki values were calculated using Excel-Fit (Microsoft) and are the means of two determinations."}, "[4]": {"settings": "read-out: Ki h-GABAA α2β2γ1, [3H]RO7239181 20-30 nM, HEK293F membranes, 1 hour at 4° C., mean of two determinations"}}, "note": "Like-named read-outs stand apart in the source and are kept apart here.", "data": [{"compound": "Cc1nnc2n1-c1ccc(C(F)(F)F)c(Cl)c1C(c1nc(O)ccc1F)=N[C@H]2C", "note": "[Example 20, 6-[(4S)-7-chloro-1,4-dimethyl-8-(trifluoromethyl)-4H-[1,2,4]triazolo[4,3-a][1,4]benzodiazepin-6-yl]-5-fluoro-pyridin-2-ol]", "values": [{"measurement": "Ki", "setting": "[1]", "result": 68.1, "unit": "nM"}, {"measurement": "Ki", "setting": "[2]", "result": 40.1, "unit": "nM"}, {"measurement": "Ki", "setting": "[2]; [4]", "result": 40.1, "unit": "nM"}, {"measurement": "Ki", "setting": "[3]", "result": 11200, "unit": "nM"}, {"measurement": "γ2/γ1 Selectivity Ratio", "setting": "[3]", "result": 279.6}, {"measurement": "LogSel", "setting": "[3]", "result": 2.45}]}, {"compound": "Cc1nc2n(n1)-c1ccc(C(F)(F)F)c(Cl)c1C(c1nc(O)ccc1F)=N[C@H]2C", "note": "[Example 25, 6-[(4S)-7-chloro-2,4-dimethyl-8-(trifluoromethyl)-4H-[1,2,4]triazolo[1,5-a][1,4]benzodiazepin-6-yl]-5-fluoro-pyridin-2-ol]", "values": [{"measurement": "Ki", "setting": "[1]", "result": 25.3, "unit": "nM"}, {"measurement": "Ki", "setting": "[2]", "result": 10.9, "unit": "nM"}, {"measurement": "Ki", "setting": "[2]; [4]", "result": 10.9, "unit": "nM"}, {"measurement": "Ki", "setting": "[3]", "result": 10600, "unit": "nM"}, {"measurement": "γ2/γ1 Selectivity Ratio", "setting": "[3]", "result": 977.2}, {"measurement": "LogSel", "setting": "[3]", "result": 2.99}]}, {"compound": "CN1C(=O)CN=C(c2cc(O)ccc2F)c2c1ccc(C(F)(F)F)c2Cl", "note": "[Example 8, 6-chloro-5-(2-fluoro-5-hydroxy-phenyl)-1-methyl-7-(trifluoromethyl)-3H-1,4-benzodiazepin-2-one]", "values": [{"measurement": "Ki", "setting": "[1]", "result": 5.43, "unit": "nM"}, {"measurement": "Ki", "setting": "[2]", "result": 2.35, "unit": "nM"}, {"measurement": "Ki", "setting": "[2]; [4]", "result": 2.35, "unit": "nM"}, {"measurement": "Ki", "setting": "[3]", "result": 80.9, "unit": "nM"}, {"measurement": "γ2/γ1 Selectivity Ratio", "setting": "[3]", "result": 34.4}, {"measurement": "LogSel", "setting": "[3]", "result": 1.54}]}, {"compound": "Cc1ccc2c(c1Cl)C(c1cc(O)ccc1F)=NCC(=O)N2C", "note": "[Example 2, 6-chloro-5-(2-fluoro-5-hydroxy-phenyl)-1,7-dimethyl-3H-1,4-benzodiazepin-2-one]", "values": [{"measurement": "Ki", "setting": "[1]", "result": 3.49, "unit": "nM"}, {"measurement": "Ki", "setting": "[2]", "result": 1.49, "unit": "nM"}, {"measurement": "Ki", "setting": "[2]; [4]", "result": 1.49, "unit": "nM"}, {"measurement": "Ki", "setting": "[3]", "result": 58.2, "unit": "nM"}, {"measurement": "LogSel", "setting": "[3]", "result": 1.59}]}, {"compound": "Cc1cnc2n1-c1ccc(C(F)(F)F)c(Cl)c1C(c1nc(O)ccc1Cl)=N[C@H]2C", "note": "[Example 26, 5-chloro-6-[(4S)-7-chloro-1,4-dimethyl-8-(trifluoromethyl)-4H-imidazo[1,2-a][1,4]benzodiazepin-6-yl]pyridin-2-ol]", "values": [{"measurement": "Ki", "setting": "[1]", "result": 20.5, "unit": "nM"}, {"measurement": "Ki", "setting": "[2]", "result": 7.88, "unit": "nM"}, {"measurement": "Ki", "setting": "[2]; [4]", "result": 7.88, "unit": "nM"}, {"measurement": "Ki", "setting": "[3]", "result": 6730, "unit": "nM"}, {"measurement": "γ2/γ1 Selectivity Ratio", "setting": "[3]", "result": 853.7}, {"measurement": "LogSel", "setting": "[3]", "result": 2.93}]}, {"compound": "O=c1ccn2c(n1)CN=C(c1cc(O)ccc1F)c1c-2ccc(C(F)(F)F)c1Cl", "note": "[Example 11, 8-chloro-7-(2-fluoro-5-hydroxy-phenyl)-9-(trifluoromethyl)-5H-pyrimido[1,2-a][1,4]benzodiazepin-3-one]", "values": [{"measurement": "Ki", "setting": "[1]", "result": 5.17, "unit": "nM"}, {"measurement": "Ki", "setting": "[2]", "result": 1.88, "unit": "nM"}, {"measurement": "Ki", "setting": "[2]; [4]", "result": 1.88, "unit": "nM"}, {"measurement": "Ki", "setting": "[3]", "result": 359, "unit": "nM"}, {"measurement": "γ2/γ1 Selectivity Ratio", "setting": "[3]", "result": 191.3}, {"measurement": "LogSel", "setting": "[3]", "result": 2.28}]}, {"compound": "C[C@@H]1N=C(c2cc(O)ccc2F)c2c(ccc(Cl)c2Cl)-n2ccc(=O)nc21", "note": "[Example 5, (5S)-8,9-dichloro-7-(2-fluoro-5-hydroxy-phenyl)-5-methyl-5H-pyrimido[1,2-a][1,4]benzodiazepin-3-one]", "values": [{"measurement": "Ki", "setting": "[1]", "result": 3.3, "unit": "nM"}, {"measurement": "Ki", "setting": "[2]", "result": 1.4, "unit": "nM"}, {"measurement": "Ki", "setting": "[2]; [4]", "result": 1.4, "unit": "nM"}, {"measurement": "Ki", "setting": "[3]", "result": 255, "unit": "nM"}, {"measurement": "γ2/γ1 Selectivity Ratio", "setting": "[3]", "result": 182.4}, {"measurement": "LogSel", "setting": "[3]", "result": 2.26}]}, {"compound": "Cc1cn2c(n1)[C@H](C)N=C(c1nc(O)ccc1F)c1c-2ccc(C(F)(F)F)c1Cl", "note": "[Example 28, 6-[(4S)-7-chloro-2,4-dimethyl-8-(trifluoromethyl)-4H-imidazo[1,2-a][1,4]benzodiazepin-6-yl]-5-fluoro-pyridin-2-ol]", "values": [{"measurement": "Ki", "setting": "[1]", "result": 19.9, "unit": "nM"}, {"measurement": "Ki", "setting": "[2]", "result": 5.28, "unit": "nM"}, {"measurement": "Ki", "setting": "[2]; [4]", "result": 5.28, "unit": "nM"}, {"measurement": "Ki", "setting": "[3]", "result": 4080, "unit": "nM"}, {"measurement": "γ2/γ1 Selectivity Ratio", "setting": "[3]", "result": 772.7}, {"measurement": "LogSel", "setting": "[3]", "result": 2.89}]}, {"compound": "Cc1nnc2n1-c1ccc(C(F)(F)F)c(Cl)c1C(c1nc(O)ccc1Cl)=N[C@H]2C", "note": "[Example 22, 5-chloro-6-[(4S)-7-chloro-1,4-dimethyl-8-(trifluoromethyl)-4H-[1,2,4]triazolo[4,3-a][1,4]benzodiazepin-6-yl]pyridin-2-ol]", "values": [{"measurement": "Ki", "setting": "[1]", "result": 42.5, "unit": "nM"}, {"measurement": "Ki", "setting": "[2]", "result": 13.7, "unit": "nM"}, {"measurement": "Ki", "setting": "[2]; [4]", "result": 13.7, "unit": "nM"}, {"measurement": "Ki", "setting": "[3]", "result": 9690, "unit": "nM"}, {"measurement": "γ2/γ1 Selectivity Ratio", "setting": "[3]", "result": 704.8}, {"measurement": "LogSel", "setting": "[3]", "result": 2.85}]}, {"compound": "COC1CN(C(=O)c2nc3n(n2)-c2ccc(C(F)(F)F)c(Cl)c2C(c2cc(O)ccc2F)=NC3)C1", "note": "[Example 16, [7-chloro-6-(2-fluoro-5-hydroxy-phenyl)-8-(trifluoromethyl)-4H-[1,2,4]triazolo[1,5-a][1,4]benzodiazepin-2-yl]-(3-methoxyazetidin-1-yl)methanone]", "values": [{"measurement": "Ki", "setting": "[1]; [3H]RO7239181 20-30 nM, HEK293F membranes, 1 hour at 4° C., mean of two determinations, read-out: Ki h-GABAA α1β2γ1", "result": 11.4, "unit": "nM"}, {"measurement": "Ki", "setting": "[2]", "result": 3.6, "unit": "nM"}, {"measurement": "Ki", "setting": "[2]; [4]", "result": 3.6, "unit": "nM"}, {"measurement": "Ki", "setting": "[3]", "result": 164, "unit": "nM"}, {"measurement": "γ2/γ1 Selectivity Ratio", "setting": "[3]", "result": 45.6}, {"measurement": "LogSel", "setting": "[3]", "result": 1.66}]}]}
